Laboratory results published in the supplement of paper PMC10307832.

Tests used:
Experiment in all cases: relative viability (nuclei count vs DMSO), 5 days (fraction); higher = more cells survive
[1] = compound: C[C@]12O[C@H](C[C@]1(O)CO)n1c3ccccc3c3c4c(c5c6ccccc6n2c5c31)CNC4=O [Lestaurtinib] + CC(=O)Nc1cccc(-n2c(=O)n(C3CC3)c(=O)c3c(Nc4ccc(I)cc4F)n(C)c(=O)c(C)c32)c1 [Trametinib] (partner 0.02 µM)
Summary of the method: (§1)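 Dosing by pin tool came one day after lung cancer cell lines were seeded in 1536-well plates, using either one drug or a fixed anchor-drug dose plus five library-drug doses (not always all listed) in √10 steps. After 5 days, nuclei were counted on 4× images. Relative viability is treated-well nuclei count divided by vehicle-well nuclei count, and values are medians of duplicate plates.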

[2] = compound: C1/C(=C\C2=CC=CS2)/C(=O)/C(=C/C3=CC=CS3)/C1 + CCNC(=O)c1noc(-c2cc(C(C)C)c(O)cc2O)c1-c1ccc(CN2CCOCC2)cc1 [Luminespib] (partner 0.01 µM)
Summary of the method: as §1

[3] = compound: C1/C(=C\C2=CC=CS2)/C(=O)/C(=C/C3=CC=CS3)/C1 + CS(=O)(=O)N1CCN(Cc2cc3nc(-c4cccc5[nH]ncc45)nc(N4CCOCC4)c3s2)CC1 [Pictilisib] (partner 1 µM)
Summary of the method: as §1

[4] = compound: C1/C(=C\C2=CC=CS2)/C(=O)/C(=C/C3=CC=CS3)/C1 + CC(C)C[C@H](NC(=O)[C@H](Cc1ccccc1)NC(=O)c1cnccn1)B(O)O [Bortezomib] (partner 0.002 µM)
Summary of the method: as §1

SW 900
relative viability ([1]; first compound 0.005 µM): 0.959 | relative viability ([1]; first compound 0.01581 µM): 0.86 | relative viability ([1]; first compound 0.05 µM): 0.691 | relative viability ([1]; first compound 0.1581 µM): 1.16 | relative viability ([1]; first compound 0.5 µM): 0.876 | relative viability ([2]; first compound 0.2 µM): 0.16 | relative viability ([2]; first compound 0.6325 µM): 0.173 | relative viability ([2]; first compound 2 µM): 0.181 | relative viability ([2]; first compound 6.325 µM): 0.175 | relative viability ([2]; first compound 20 µM): 0.156

NCI-H1944
relative viability ([1]; first compound 0.005 µM): 0.408 | relative viability ([1]; first compound 0.01581 µM): 0.464 | relative viability ([1]; first compound 0.05 µM): 0.386 | relative viability ([1]; first compound 0.1581 µM): 0.345 | relative viability ([1]; first compound 0.5 µM): 0.292 | relative viability ([2]; first compound 0.2 µM): 0.762 | relative viability ([2]; first compound 0.6325 µM): 0.731 | relative viability ([2]; first compound 2 µM): 0.674 | relative viability ([2]; first compound 6.325 µM): 0.695 | relative viability ([2]; first compound 20 µM): 0.626 | relative viability ([3]; first compound 0.2 µM): 0.35 | relative viability ([3]; first compound 0.6325 µM): 0.333 | relative viability ([3]; first compound 2 µM): 0.357 | relative viability ([3]; first compound 6.325 µM): 0.162 | relative viability ([3]; first compound 20 µM): 0.341

NCI-H727
relative viability ([1]; first compound 0.005 µM): 0.375 | relative viability ([1]; first compound 0.01581 µM): 0.452 | relative viability ([1]; first compound 0.05 µM): 0.423 | relative viability ([1]; first compound 0.5 µM): 0.405 | relative viability ([2]; first compound 0.2 µM): 0.428 | relative viability ([2]; first compound 0.6325 µM): 0.336 | relative viability ([2]; first compound 2 µM): 0.433 | relative viability ([2]; first compound 6.325 µM): 0.477 | relative viability ([2]; first compound 20 µM): 0.308 | relative viability ([4]; first compound 0.2 µM): 0.783 | relative viability ([4]; first compound 0.6325 µM): 0.947 | relative viability ([4]; first compound 2 µM): 1.04 | relative viability ([4]; first compound 6.325 µM): 0.698 | relative viability ([4]; first compound 20 µM): 0.815 | relative viability ([3]; first compound 0.2 µM): 0.328 | relative viability ([3]; first compound 0.6325 µM): 0.419 | relative viability ([3]; first compound 2 µM): 0.609 | relative viability ([3]; first compound 6.325 µM): 0.21 | relative viability ([3]; first compound 20 µM): 0.455

NCI-H1650
relative viability ([1]; first compound 0.005 µM): 0.516 | relative viability ([1]; first compound 0.01581 µM): 0.66 | relative viability ([1]; first compound 0.05 µM): 0.656 | relative viability ([1]; first compound 0.1581 µM): 0.687 | relative viability ([1]; first compound 0.5 µM): 0.335 | relative viability ([2]; first compound 0.2 µM): 0.176 | relative viability ([2]; first compound 0.6325 µM): 0.194 | relative viability ([2]; first compound 2 µM): 0.205 | relative viability ([2]; first compound 6.325 µM): 0.218 | relative viability ([2]; first compound 20 µM): 0.185 | relative viability ([4]; first compound 0.2 µM): 0.221 | relative viability ([4]; first compound 0.6325 µM): 0.231 | relative viability ([4]; first compound 2 µM): 0.327 | relative viability ([4]; first compound 6.325 µM): 0.202 | relative viability ([4]; first compound 20 µM): 0.186 | relative viability ([3]; first compound 0.2 µM): 0.618 | relative viability ([3]; first compound 0.6325 µM): 0.584 | relative viability ([3]; first compound 2 µM): 0.672 | relative viability ([3]; first compound 6.325 µM): 0.567 | relative viability ([3]; first compound 20 µM): 0.598

HCC-827
relative viability ([1]; first compound 0.005 µM): 0.536 | relative viability ([1]; first compound 0.01581 µM): 0.527 | relative viability ([1]; first compound 0.05 µM): 0.573 | relative viability ([1]; first compound 0.1581 µM): 0.456 | relative viability ([1]; first compound 0.5 µM): 0.458 | relative viability ([2]; first compound 0.2 µM): 0.85 | relative viability ([2]; first compound 0.6325 µM): 0.608 | relative viability ([2]; first compound 2 µM): 0.454 | relative viability ([2]; first compound 6.325 µM): 0.592 | relative viability ([2]; first compound 20 µM): 0.636 | relative viability ([4]; first compound 0.2 µM): 1.1 | relative viability ([4]; first compound 0.6325 µM): 1.07 | relative viability ([4]; first compound 2 µM): 0.993 | relative viability ([4]; first compound 6.325 µM): 0.84 | relative viability ([4]; first compound 20 µM): 1.05 | relative viability ([3]; first compound 0.2 µM): 1.12 | relative viability ([3]; first compound 0.6325 µM): 1 | relative viability ([3]; first compound 2 µM): 1.1 | relative viability ([3]; first compound 6.325 µM): 0.933 | relative viability ([3]; first compound 20 µM): 1.01

HCC-366
relative viability ([1]; first compound 0.005 µM): 0.365 | relative viability ([1]; first compound 0.01581 µM): 0.489 | relative viability ([1]; first compound 0.05 µM): 0.399 | relative viability ([1]; first compound 0.1581 µM): 0.342 | relative viability ([1]; first compound 0.5 µM): 0.149 | relative viability ([4]; first compound 0.2 µM): 1.03 | relative viability ([4]; first compound 0.6325 µM): 1.09 | relative viability ([4]; first compound 2 µM): 1.07 | relative viability ([4]; first compound 6.325 µM): 0.893 | relative viability ([4]; first compound 20 µM): 1.07 | relative viability ([3]; first compound 0.2 µM): 0.132 | relative viability ([3]; first compound 0.6325 µM): 0.137 | relative viability ([3]; first compound 2 µM): 0.204 | relative viability ([3]; first compound 6.325 µM): 0.191 | relative viability ([3]; first compound 20 µM): 0.0995

HARA
relative viability ([1]; first compound 0.005 µM): 0.639 | relative viability ([1]; first compound 0.01581 µM): 0.832 | relative viability ([1]; first compound 0.05 µM): 0.685 | relative viability ([1]; first compound 0.1581 µM): 1.09 | relative viability ([1]; first compound 0.5 µM): 0.268 | relative viability ([2]; first compound 0.2 µM): 0.785 | relative viability ([2]; first compound 0.6325 µM): 0.923 | relative viability ([2]; first compound 2 µM): 1.09 | relative viability ([2]; first compound 6.325 µM): 0.853 | relative viability ([2]; first compound 20 µM): 0.791 | relative viability ([4]; first compound 0.2 µM): 1.23 | relative viability ([4]; first compound 0.6325 µM): 1.1 | relative viability ([4]; first compound 2 µM): 1.08 | relative viability ([4]; first compound 6.325 µM): 0.89 | relative viability ([4]; first compound 20 µM): 1.07 | relative viability ([3]; first compound 0.2 µM): 0.452 | relative viability ([3]; first compound 0.6325 µM): 0.448 | relative viability ([3]; first compound 2 µM): 0.508 | relative viability ([3]; first compound 6.325 µM): 0.504 | relative viability ([3]; first compound 20 µM): 0.445

NCI-H322M
relative viability ([1]; first compound 0.005 µM): 0.507 | relative viability ([1]; first compound 0.01581 µM): 0.567 | relative viability ([1]; first compound 0.1581 µM): 0.512 | relative viability ([1]; first compound 0.5 µM): 0.672 | relative viability ([2]; first compound 0.2 µM): 0.994 | relative viability ([2]; first compound 0.6325 µM): 0.831 | relative viability ([2]; first compound 2 µM): 0.938 | relative viability ([2]; first compound 6.325 µM): 0.812 | relative viability ([2]; first compound 20 µM): 0.745 | relative viability ([4]; first compound 0.2 µM): 1.17 | relative viability ([4]; first compound 0.6325 µM): 1.31 | relative viability ([4]; first compound 2 µM): 1.3 | relative viability ([4]; first compound 6.325 µM): 1.19 | relative viability ([4]; first compound 20 µM): 1.12 | relative viability ([3]; first compound 0.2 µM): 0.541 | relative viability ([3]; first compound 0.6325 µM): 0.526 | relative viability ([3]; first compound 2 µM): 0.654 | relative viability ([3]; first compound 6.325 µM): 0.538 | relative viability ([3]; first compound 20 µM): 0.522

LXF-289
relative viability ([1]; first compound 0.005 µM): 0.66 | relative viability ([1]; first compound 0.01581 µM): 0.691 | relative viability ([1]; first compound 0.05 µM): 0.494 | relative viability ([1]; first compound 0.1581 µM): 0.467 | relative viability ([1]; first compound 0.5 µM): 0.159 | relative viability ([2]; first compound 0.2 µM): 0.705 | relative viability ([2]; first compound 0.6325 µM): 0.735 | relative viability ([2]; first compound 2 µM): 0.633 | relative viability ([2]; first compound 6.325 µM): 0.611 | relative viability ([2]; first compound 20 µM): 0.691 | relative viability ([4]; first compound 0.2 µM): 1.01 | relative viability ([4]; first compound 0.6325 µM): 0.988 | relative viability ([4]; first compound 2 µM): 0.971 | relative viability ([4]; first compound 6.325 µM): 0.83 | relative viability ([4]; first compound 20 µM): 0.991 | relative viability ([3]; first compound 0.2 µM): 0.814 | relative viability ([3]; first compound 0.6325 µM): 0.772 | relative viability ([3]; first compound 2 µM): 0.821 | relative viability ([3]; first compound 6.325 µM): 0.699 | relative viability ([3]; first compound 20 µM): 0.797
